This is an account of results in patent publication US20220041606A1, “POSITIVE ALLOSTERIC MODULATORS OF THE MUSCARINIC ACETYLCHOLINE RECEPTOR M1” (Vanderbilt University, priority 2020, published 2022).

Molecules are shown by their SMILES.

Test [1] concerns the target T1, human mAChR M1 (Homo sapiens, UniProt P11229).
T1 construct: host or cells: CHO-K1 cells (ATCC), stably transfected using Lipofectamine2000
T1 sequence (P11229 1-460): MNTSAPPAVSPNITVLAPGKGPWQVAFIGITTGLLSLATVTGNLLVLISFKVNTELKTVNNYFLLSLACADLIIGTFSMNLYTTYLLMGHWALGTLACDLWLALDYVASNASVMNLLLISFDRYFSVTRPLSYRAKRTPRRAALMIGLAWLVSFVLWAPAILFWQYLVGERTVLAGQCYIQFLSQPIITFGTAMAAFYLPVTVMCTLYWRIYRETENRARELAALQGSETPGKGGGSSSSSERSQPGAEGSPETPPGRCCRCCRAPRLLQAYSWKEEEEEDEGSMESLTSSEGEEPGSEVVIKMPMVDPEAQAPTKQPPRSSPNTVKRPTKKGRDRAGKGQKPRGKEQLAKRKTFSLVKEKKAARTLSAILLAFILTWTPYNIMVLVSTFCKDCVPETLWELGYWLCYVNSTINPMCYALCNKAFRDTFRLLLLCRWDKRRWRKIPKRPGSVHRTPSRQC
As to the kind of experiment: mAChR M1 cell-based functional assay (calcium mobilization), PAM activity: increase in the EC20 acetylcholine response. The note with it: CHO-K1 cells expressing hM1; potentiation of EC20 acetylcholine response. The gist of the method: (§1)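 CHO-K1 cells stably expressing hM1, loaded with Fluo-4 AM; calcium flux read on FDSS 6000. Compound (11-point, 1:3 CRC) added at 4 s, EC20 acetylcholine at 144 s, EC80 at 230 s; agonism from response to compound alone, PAM from increase in EC20 response; Emax relative to acetylcholine maximum, four-parameter fit.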
In general terms: Calcium assays in cells follow changes in intracellular calcium, usually with a dye or a luminescent sensor.

Test [2] deals with T1, human mAChR M1. Put plainly: mAChR M1 cell-based functional assay (calcium mobilization), agonist activity upon compound addition. The note with it: CHO-K1 cells expressing hM1; for EC50: compound alone, before acetylcholine addition; for Emax: relative to the maximum for acetylcholine. The gist of the method:
as §1

As a reminder, the EC50 is the midpoint of the concentration-response curve. As usually defined, the Emax is the greatest response seen or fitted, relative to the assay's reference. With `Cn1cc2c(-c3cc(F)c(Cn4cc(C(=O)N[C@H]5CCCC[C@@H]5O)c5ncncc5c4=O)c(F)c3)cccc2n1` [Compound A88, 6-(2,6-Difluoro-4-(2-methyl-2H-indazol-4-yl)benzyl)-N-((1S,2S)-2-hydroxycyclohexyl)-5-oxo-5,6-dihydropyrido[4,3-d]pyrimidine-8-carboxamide], on human mAChR M1 [1], the EC50 is at least 10 µM and the maximum response (Emax) stood at 40%. Further, at human mAChR M1 [2], the EC50 is over 10 µM and the Emax is under 5%.
Taken in the same sequence, the figures for `Cn1cc(-c2ccc(Cn3cc(C(=O)NC4CCOCC4)c4ncccc4c3=O)c(F)c2)cn1` [Compound A10, 6-(2-fluoro-4-(1-methyl-1H-pyrazol-4-yl)benzyl)-5-oxo-N-(tetrahydro-2H-pyran-4-yl)-5,6-dihydro-1,6-naphthyridine-8-carboxamide] were at least 10 µM, 59%, over 10 µM and under 5%.
For the compound `Cn1ccc(-c2ccc(Cn3cc(C(=O)N[C@H]4CCCC[C@@H]4O)c4sccc4c3=O)c(F)c2)n1` [Compound D27, 5-(2-fluoro-4-(1-methyl-1H-pyrazol-3-yl)benzyl)-N-((1S,2S)-2-hydroxycyclohexyl)-4-oxo-4,5-dihydrothieno[3,2-c]pyridine-7-carboxamide], on human mAChR M1 [1], the EC50 was over 10 µM and the Emax came to 37%. On human mAChR M1 [2], the half-maximal effective concentration (EC50) is over 10 µM and the Emax was under 5%.
As for `Cc1cc(-c2cc(F)c(Cn3cc(C(=O)N[C@H]4CCC[C@@H]4O)c4ncccc4c3=O)c(F)c2)ccn1` [Compound A38, 6-(2,6-difluoro-4-(2-methylpyridin-4-yl)benzyl)-N-((1S,2S)-2-hydroxycyclopentyl)-5-oxo-5,6-dihydro-1,6-naphthyridine-8-carboxamide], on human mAChR M1 [1], the EC50 was 0.57 µM and the Emax came to 25%. Further, at human mAChR M1 [2], the EC50 was over 10 µM and the Emax is under 5%.
In the same order, the values of `Cn1ccc(-c2ccc(Cn3cc(C(=O)NC4CC5(COC5)C4)c4occc4c3=O)c(F)c2)n1` [Compound D10, 5-(2-fluoro-4-(1-methyl-1H-pyrazol-3-yl)benzyl)-4-oxo-N-(2-oxaspiro[3.3]heptan-6-yl)-4,5-dihydrofuro[3,2-c]pyridine-7-carboxamide] are over 10 µM, 25%, over 10 µM and under 5%.
For the compound `Cn1cc(-c2ccc(Cn3cc(C(=O)NC4CC5(COC5)C4)c4nccn4c3=O)c(F)c2)cn1` [Compound B9, 6-(2-fluoro-4-(1-methyl-1H-pyrazol-4-yl)benzyl)-5-oxo-N-(2-oxaspiro[3.3]heptan-6-yl)-5,6-dihydroimidazo[1,2-c]pyrimidine-8-carboxamide], at human mAChR M1 [1], the EC50 came out at 2.06 µM and the maximal effect (Emax) worked out at 61%. Moreover, the maximal effect (Emax) on human mAChR M1 [2] came to 17%.
On to `O=C(N[C@H]1CCC[C@@H]1O)c1cn(Cc2ccc(-n3cccn3)cc2)c(=O)n2ccnc12` [Compound B14, 6-(4-(1H-pyrazol-1-yl)benzyl)-N-((1S,2S)-2-hydroxycyclopentyl)-5-oxo-5,6-dihydroimidazo[1,2-c]pyrimidine-8-carboxamide], for which, on human mAChR M1 [1], the EC50 was determined as 1.33 µM and the Emax worked out at 70%. Also, the maximal response (Emax) on human mAChR M1 [2] turned out to be 28%.
Take `Cn1cc(-c2ccc(Cn3cc(C(=O)N[C@H]4CCC[C@@H]4O)c4occc4c3=O)c(F)c2)cn1` [Compound D14, 5-(2-fluoro-4-(1-methyl-1H-pyrazol-4-yl)benzyl)-N-((1S,2S)-2-hydroxycyclopentyl)-4-oxo-4,5-dihydrofuro[3,2-c]pyridine-7-carboxamide]: the concentration giving a half-maximal response (EC50) at human mAChR M1 [1] and at human mAChR M1 [2] was over 10 µM in each case. The maximal effect (Emax) at human mAChR M1 [1] is 51%; on human mAChR M1 [2], under 5%.
In the case of `Cn1cc(-c2ccc(Cn3cc(C(=O)N[C@H]4CCOC[C@@H]4O)c4ncccc4c3=O)cn2)cn1` [Compound A15, N-((3R,4S)-3-hydroxytetrahydro-2H-pyran-4-yl)-6-((6-(1-methyl-1H-pyrazol-4-yl)pyridin-3-yl)methyl)-5-oxo-5,6-dihydro-1,6-naphthyridine-8-carboxamide], the 50% effective concentration (EC50) at human mAChR M1 [1] came to 1.37 µM. The maximal response (Emax) turned out to be 68% at human mAChR M1 [1] and 34% at human mAChR M1 [2].
In the same order, the values of `Cn1cc(-c2ccc(Cn3cc(C(=O)N[C@H]4CCCC[C@@H]4O)c4ncccc4c3=O)cn2)cn1` [Compound A16, N-((1S,2S)-2-hydroxycyclohexyl)-6-((6-(1-methyl-1H-pyrazol-4-yl)pyridin-3-yl)methyl)-5-oxo-5,6-dihydro-1,6-naphthyridine-8-carboxamide] are 0.98 µM, 68% and 27%.
Take `Cn1cc(-c2ccc(Cn3cc(C(=O)N[C@H]4CCOC[C@@H]4O)c4sccc4c3=O)c(F)c2)cn1` [Compound D29, 5-(2-fluoro-4-(1-methyl-1H-pyrazol-4-yl)benzyl)-N-((3R,4S)-3-hydroxytetrahydro-2H-pyran-4-yl)-4-oxo-4,5-dihydrothieno[3,2-c]pyridine-7-carboxamide]: on human mAChR M1 [1], the EC50 was over 10 µM and the maximal effect (Emax) was determined as 37%. Further, at human mAChR M1 [2], the EC50 was over 10 µM and the maximum response (Emax) is under 5%.
Consider `O=C(N[C@H]1CCOC[C@@H]1O)c1cn(Cc2ccc(-c3cscn3)cc2)c(=O)c2cccnc12` [Compound A57, N-((3R,4S)-3-hydroxytetrahydro-2H-pyran-4-yl)-5-oxo-6-(4-(thiazol-4-yl)benzyl)-5,6-dihydro-1,6-naphthyridine-8-carboxamide], for which the figures for the EC50 at human mAChR M1 [1] and at human mAChR M1 [2] were 1.15 µM and over 10 µM, respectively. Moreover, the Emax on human mAChR M1 [1] is 68%; on human mAChR M1 [2], 25%.
For `Cn1ccc(-c2ccc(Cn3cc(C(=O)N[C@H]4CCOC[C@@H]4O)c4nccnc4c3=O)c(F)c2)n1` [Compound A63, 6-(2-fluoro-4-(1-methyl-1H-pyrazol-3-yl)benzyl)-N-((3R,4S)-3-hydroxytetrahydro-2H-pyran-4-yl)-5-oxo-5,6-dihydropyrido[3,4-b]pyrazine-8-carboxamide], on human mAChR M1 [1], the EC50 is at least 10 µM and the maximum response (Emax) was 55%. At human mAChR M1 [2], the EC50 is over 10 µM and the Emax worked out at 7%.
